This note sets out measurements from US20150104868A1, “Methods of Maintaining and Improving Biological Cell Function and Activity” (GARGILL INCORPORATED, priority 2012, published 2015).

The subject of data set [1] is HUVEC cells. As to the kind of experiment: HUVEC cell viability assay (trypan blue, percentage of dead cells). The note with it: ERT/MAN 5 mM 1 h before, SIN-1 0.5 mM, CML 1 micromolar. The class given is cell-based, human. Here is the method:
A HUVEC cell line (CRL-1730) was obtained from American Type Culture Collection (ATCC) of Manassas, Va. […] The prepared cells were maintained in collagen coated T75 flasks (Greiner Bio-one) at 37° C. in a 5% CO2 atmosphere. The prepared cells were subjected to various stressors. Stressors, for purposes of the examples, include conditions of stress caused by glucose directly or indirectly through the formation or elevation of other substances that cause stress. Diabetic stressors include high glucose (HG; 30 mM, 24 h), TNFα: pro-inflammatory agent, Nε carboxymethyllysine: advanced glycation end (AGE) product, and SIN-1: peroxynitrite generator. Prepared cells were also exposed to normal glucose (NG; 7 mM, 24 h) as a control. The prepared cells were seeded in 6 well plates and T75 flasks and grown until 80% confluence. The medium was removed, and the cells were washed with Hank's Balanced Salt Solution (HBSS). […] The vehicle solution is the solvent for the test compounds, in this case being the medium without supplements. […] The cells described above were also incubated for 24 hours with a 7 mM, normal glucose (NG) solution or in some instances, with a 15 mM, intermediary glucose (IG) solution. See, for example, FIG. 6. Subsequently, the cells were incubated for 24 hours. The same protocol was used for incubation with Nε-(carboxymethyl)lysine (CML, final concentration 1 micromolar) and 1,3-morpholino sidnonimine (SIN-1, final concentration 0.5 mM). […] In a cell viability assay, fresh, untreated HUVEC cells were grown in 6 well plates until 80% confluence. Subsequently, the incubation medium was removed and the cells were washed with HBSS and harvested with trypsin. All cell material, including the medium and the HBSS wash, was collected and centrifuged for 5 minutes at 500×g. […] The number of viable (white) and dead (blue) cells were counted in 25 squares, and the count was repeated an additional two times for each sample, for a total of three counts per sample. […] The percentage of dead cells was then calculated with the formula: (blue cells/(blue cells+white cells))*100.

The test system of data set [2] is Mouse intestine (entero-endocrine) STC-1 cells. Here is the method:
Appropriate blanks, positive controls, and standards were also included.
The lactate dehydrogenase (LDH) leakage from cells was analyzed in the supernatants as a marker for cytotoxic cell death.

The test system of data set [3] is HUVEC cells. As to the kind of experiment: Oxidative damage: protein carbonyls in HUVEC. The class given is cell-based, human. The note with it: HG 30 mM glucose 24 h, with or without 5 mM ERT/MAN. On the procedure:
The prepared cells were seeded in 6 well plates and T75 flasks and grown until 80% confluence. The medium was removed, and the cells were washed with Hank's Balanced Salt Solution (HBSS). […] The vehicle solution is the solvent for the test compounds, in this case being the medium without supplements. […] The cells described above were also incubated for 24 hours with a 7 mM, normal glucose (NG) solution or in some instances, with a 15 mM, intermediary glucose (IG) solution. See, for example, FIG. 6. Subsequently, the cells were incubated for 24 hours. The same protocol was used for incubation with Nε-(carboxymethyl)lysine (CML, final concentration 1 micromolar) and 1,3-morpholino sidnonimine (SIN-1, final concentration 0.5 mM). […] Hyperglycemia is strongly associated with oxidative stress, an imbalance between the formation of reactive oxygen species and the present antioxidants. Excess reactive oxygen species react with critical cellular targets, viz. membrane lipids, proteins and (deoxy)ribonucleic acids. […] Accordingly, one of the targeted assays included studying a comparison of HG to HGERT conditions, where the oxidative damage was evaluated showing that the protein carbonyls decreased from 6.55 nM/mg protein with HG to 3.77 with […]=0.089). Protein carbonyls are end products of reactions between proteins and reactive oxygen species (ROS), formed during oxidative stress. […]

“Also recorded” adds a separate entry of the source. Read-outs that look alike come from different tables or passages of the source.

In the case of `[NH-]c1c[n+](N2CCOCC2)no1` [SIN-1, 3-morpholinosidnonimine], the “percentage of dead cells (Average)” value was 12.59% with HUVEC cells [1] (HG 30 mM glucose 24 h, listed as SIN); “significant increase in the amount of dead cells; also recorded: increased the number of dead cells” in the data set with HUVEC cells [1] (NG 7 mM glucose 24 h); 12.29% in the data set with HUVEC cells [1] (NG 7 mM glucose 24 h, listed as SIN).
`O=C(CO)[C@@H](O)[C@H](O)[C@H](O)CO[C@H]1O[C@H](CO)[C@@H](O)[C@H](O)[C@H]1O` [6-O-α-D-glucopyranosyl-D-fructose]: the “cell death (leakage of lactate dehydrogenase)” value in data set [2] was “cell death was higher”.
On the same count and under the same terms, as for `OC[C@H]1O[C@@](CO)(O[C@H]2O[C@H](CO)[C@@H](O)[C@H](O)[C@H]2O)[C@@H](O)[C@@H]1O` [sucrose], the entry is “cell death was higher”.
In the case of `O=C(CO)[C@@H](O)[C@H](O)[C@H](O)CO` [fructose], the “cell death (leakage of lactate dehydrogenase)” value in data set [2] (STC-1 cells, 10% w/v, 2 hours at 37° C.) is on record as “cell death was higher”.
On to `OC[C@@H](O)[C@@H](O)[C@H](O)[C@H](O)CO` [MAN, (2R,3R,4R,5R)-hexaan-1,2,3,4,5,6-hexol, reference compound], for which the protein carbonyls result in the data set on HUVEC cells [3] was “did not reduce protein carbonyls”.
